Laboratory results as given in patent US9981044B2, “Activation of adaptive immune processes for the treatment of cancers and infectious diseases” (Susavion Biosciences, Inc., priority 2014, dated 2018).
Where a SMILES comes first, the peptide text is derived from it. Bridges are numbered along the chain shown (N, C = ends). Roman numbers before positions name the chains, in order.

Columns and labels:
[1] = test system: ovarian cancer cell line ID8; test: Survival of mice implanted with ID8 cells; format: in vivo, C57Bl/6 mice
Procedure: Tumors were allowed to progress for 45 days before the animal were injected with svD2 every other day.
Female C57Bl/6 mice were implanted with ID8 cells. After allowing the cell to develop into tumors for 45 days, the animals received injections of svD2 every other day at a dose of 1 nmol/g body weight or 0.1 nmol/g body weight. Accumulation of ascites was monitored by weight of the animals as the result of expansion of the peritoneal cavity. […] Table 3 summarizes the survival data including a treatment with paclitaxel, which is a standard-of-care chemotherapeutic drug. The animals were given paclitaxel at a dose of 18 mg/kg body weight on days 45, 47 and 49 of the experiment.

[2] = test system: peritoneal cells; test: Response of peritoneal cells in mice (flow cytometry); format: in vivo; conditions: C57BL/6 mice
Procedure: The number of cells is indicated as a ratio of the total number of each cell type normalized to the number of cells in untreated control samples.
To examine whether svD2 effectively stimulates the immune system in vivo, the peptide was injected subcutaneously on alternate days into Th1-poised C57BL/6 strain mice at a dose of 1 μmole/kg.

[3] = Toxicity in vivo
[4] = test system: human PBMC cultures; test: Phagocytosis of opsonized microspheres in human PBMC cultures; format: cell-based; conditions: for Beads/cell (mean ± SD): treated 20 h (50 nM svD2 or 100 ng/mL IFNγ), challenged 1 h with microspheres opsonized with rabbit antiserum, 15 cells
Procedure: Whether the peptide svD2 stimulates phagocytosis was studied in the human PBMC cultures. The cells were treated 20 h with vehicle (phosphate-buffered saline, PBS), 50 nM svD2 or 100 ng/mL IFNγ, and then challenged 1 h with microspheres. Cells were fixed with 2% formalin and washed with PBS. Beads in each cell were counted on microscope images, with 15 cells analyzed for each treatment.

[5] = Solubility of the polypeptide; format: physicochemical
Description: svD2 in lyophilized form is a white fluffy powder using trifluoroacetate (TFA) or acetate as a counterion. Net polypeptide content with and without the counter ion was approximately 88% and 73%, respectively. The remainder was likely water of hydration of the highly polar polypeptide. Solubility of the polypeptide in water is high. In the preparation of aqueous pharmaceutical compositions of the polypeptide with any of the pharmaceutically acceptable carriers described above, concentrations of the polypeptide in isotonic saline of 10 mM, and possibly somewhat higher, can be readily achieved. According to representative embodiments, therefore, the polypeptide is administered to a subject suffering from cancer in an aqueous pharmaceutical composition having a polypeptide concentration generally from about 0.1 mM to about 10 mM, typically from about 0.1 mM to about 5 mM, and a pharmaceutically acceptable carrier.

[6] = test system: Human peripheral blood mononuclear cells; test: Cytokine release by human PBMCs (cytokine antibody array); format: cell-based; conditions: 4-hour treatment, svD2 100 nM
Procedure: The polypeptide svD2, synthesized in Example 1 above, was evaluated in terms of a number of biological activities thought to correlate with its effectiveness against cancer.

[7] = svD2 0.1 nmol/g every other day from day 45
[8] = svD2 1 nmol/g every other day from day 45
[9] = paclitaxel 18 mg/kg on days 45, 47 and 49

Molecule: CC(C)[C@H](N)C(=O)N[C@@H](CO)C(=O)N[C@@H](CC(N)=O)C(=O)N[C@@H](CCC(N)=O)C(=O)N[C@@H](Cc1c[nH]cn1)C(=O)NCC(=O)NCC(=O)NCC(=O)N[C@@H](CO)C(=O)NCCCC[C@H](NC(=O)[C@H](CO)NC(=O)CNC(=O)CNC(=O)CNC(=O)[C@H](Cc1c[nH]cn1)NC(=O)[C@H](CCC(N)=O)NC(=O)[C@H](CC(N)=O)NC(=O)[C@H](CO)NC(=O)[C@@H](N)C(C)C)C(=O)NCCCC[C@H](NC(=O)[C@H](CCCCNC(=O)[C@H](CO)NC(=O)CNC(=O)CNC(=O)CNC(=O)[C@H](Cc1c[nH]cn1)NC(=O)[C@H](CCC(N)=O)NC(=O)[C@H](CC(N)=O)NC(=O)[C@H](CO)NC(=O)[C@@H](N)C(C)C)NC(=O)[C@H](CO)NC(=O)CNC(=O)CNC(=O)CNC(=O)[C@H](Cc1c[nH]cn1)NC(=O)[C@H](CCC(N)=O)NC(=O)[C@H](CC(N)=O)NC(=O)[C@H](CO)NC(=O)[C@@H](N)C(C)C)C(N)=O [svD2, [(VSNQHGGGS)2K]2K-NH2] (I: H-VSNQHGGGSKK-NH2 / II: H-VSNQHGGGSK / III: H-VSNQHGGGS / IV: H-VSNQHGGGS; amide I:10-IV:C, I:11-II:C, II:10-III:C; N-terminus assumed)
- Survival rate of mice implanted with ID8 cells ([1]; both doses, 1 nmol/g and 0.1 nmol/g body weight): improved the survival rate
- Mean survival [1, 7]: 74.5 days
- Number of deaths [1, 7]: 4
- Mean survival [1, 8]: 74 days
- Number of deaths [1, 8]: 4
- Memory B cells in the peritoneal cavity ([2]; 1 nmole/g doses, flow cytometry 24 hours after each injection): increase in memory B cells
- Mature immune cells in peritoneal cells ([2]; 1 μmole/kg subcutaneously on alternate days, 24 hours after the second injection): several-fold increases
- Changes in mature cell populations (CD3, CD8, NK1.1, CD19, CD69) ([2]; 1 μmole/kg subcutaneously, 24 hours after the first injection): small
- Toxicity in treated mice [3]: No evidence of toxicity
- Stimulation of phagocytic cells ([4]; human PBMC cultures, 50 nM svD2, 20 h): does not significantly stimulate phagocytic cells
- Beads/cell (mean ± SD) [4]: 1.3 ± 1.8 Beads/cell
- solubility ([5]; isotonic saline, saline or isotonic, read-out: Achievable concentration in isotonic saline): ≥ 10 mM
- Solubility in water ([5]; water): high
- Relative level of Eotaxin released [6]: 47
- Relative level of Eotaxin-2 released [6]: 470
- Relative level of GM-CSF released [6]: 96
- Relative level of ICAM-1 released [6]: 70
- Relative level of IFNγ released [6]: 170
- Relative level of IL-1a released [6]: 322
- Relative level of IL-12p70 released [6]: 117
- Relative level of IL-15 released [6]: 137
- Relative level of IL-17 released [6]: 21
- Relative level of IL-21 released [6]: 130
- Relative level of IP-10 released [6]: 377
- Relative level of MCP-2 released [6]: 97
- Relative level of MIG released [6]: 94
- Relative level of PDGF-BB released [6]: 82
- Relative level of TIMP-2 released [6]: 285
- Relative level of TNF-α released [6]: 138
- Relative level of TNF-β released [6]: 93

Molecule: CC(=O)O[C@H]1C(=O)[C@@]2(C)[C@H]([C@H](OC(=O)c3ccccc3)[C@]3(O)C[C@H](OC(=O)[C@H](O)[C@@H](NC(=O)c4ccccc4)c4ccccc4)C(C)=C1C3(C)C)[C@]1(OC(C)=O)CO[C@@H]1C[C@@H]2O [Paclitaxel, paclitaxel, reference compound]
- Mean survival [1, 9]: 81.5 days
- Number of deaths [1, 9]: 10

B1: IFNγ: cytokine used as comparator treatment, 100 ng/mL in phagocytosis test (protein, UniProt P01579 24-161, looked up)
Interferon gamma: QDPYVKEAENLKKYFNAGHSDVADNGTLFLGILKNWKEESDRKIMQSQIVSFYFKLFKNFKDDQSIQKSVETIKEDMNVKFFNSNKKKRDDFEKLTNYSVTDLNVQRKAIHELIQVMAELSPAAKTGKRKRSQMLFRG
- Beads/cell (mean ± SD) [4]: 35.8 ± 12.6 Beads/cell
- Relative level of IL-21 released [6]: (IFNγ, 100)
